# Source: patent US10265276B2, “Pharmaceutical composition for preventing or treating arthritis or inflammatory disease containing 2-methoxy-4-(3-(4-methoxyphenyl)propyl-1-en-1-yl)phenol as active ingredient” (CHUNGBUK NATIONAL UNIVERSITY INDUSTRY-ACADEMIC COOPERATION …, priority 2015, dated 2019)
# Tests used:
# RAW 264.7 cells = experiment: Anti-inflammatory effect in TNF-α-treated RAW 264.7 cells; format: cell-based, mouse; conditions: TNF-α (10 ng/mL), 24 hours
# Method: 6. Nitrite assay: RAW 264.7 cells were added to a 96-well plate at a density of 1×10^4 cells/well, and LPS […] and TNF-α (10 ng/mL) were added or not added for 24 hours in the presence or absence of various concentrations of MMPP. Accumulation of nitrites in a supernatant was analyzed using a nitric oxide assay kit commercially available from iNtRON Biotechnology (Seongnam, Korea).
# 8. ROS Assay: An ROS assay was carried out using an ELISA kit (commercially available from Cell Biolabs Inc.).
# In Experimental Example 7, an experiment regarding an anti-inflammatory effect of MMPP in TNF-α-treated RAW 264.7 cells was performed.
# It was confirmed that, when RAW 264.7 cells were treated with TNF-α (10 ng/mL) in combination with MMPP […] for 24 hours, the NO and ROS generation (FIG. 8(A)), the iNOS and COX2 expression (FIG. 8(B)), and the STAT3 and NF-κB activities (FIGS. 8(C) and (D)) induced by treatment with TNF-α (10 ng/mL) were reduced in the RAW 264.7 cells.
# NF-κB and STAT3 = experiment: EMSA and Western blotting of CAIA-induced ankle joint tissues; format: in vivo, mouse
# Method: In addition, the DNA binding activities of NF-κB and STAT3 were determined by EMSA. The same amount of the total proteins (20 μg/Lane) was subjected to 10% SDS-PAGE, and STAT3, P-STAT3, p50, p65, IKK, 1 KB, and p-1lκB were detected through Western blotting. A β-actin protein or histone H was used as the control. As a result, it can be seen that MMPP inhibited the STAT3 DNA-binding activity (FIG. 12(A)), the NF-κB STAT3 DNA-binding activity (FIG. 12(B)), nuclear translocation of pSTAT3, p50 and p65, and phosphorylation of IkB, IKKb and IKKa in the CAIA-induced ankle joint tissues (FIGS. 12(C) and 12(D))
# synoviocytes = experiment: Anti-inflammatory effect in LPS- or TNF-α-treated synoviocytes; format: cell-based, human; conditions: LPS or TNF-α (10 ng/mL), 24 hours
# Text: 4. Human synoviocyte culture: The research protocol and human tissue cells used in the study were approved by the College of Medicine of Soon Chun Hyang University Medical Center. Cells were obtained from patients with rheumatoid arthritis diagnosed according to the American College of Rheumatology classification criteria revised in 1987. Synovial tissue samples are obtained from knee joints of patients with long-term rheumatoid arthritis (two males and two females, an average age of 65±21.3 years, and an average onset period of 10 years or more). FLS (Fibroblast-like synoviocytes) were cultured as described above. Simply, the FLSs were cultured in a culture dish (Nalge Nunc International, Rochester, N.Y., USA) containing a DMEM culture medium (Gibco Life Technologies) supplemented with […] FBS (Gibco Life Technologies) and 50 U·mL^−1 penicillin/streptomycin. For all cultures and an incubator, the culture was performed at 37° C. in an incubator under a 5% CO2 atmosphere. The medium was replaced every three days. The cells between 5th and 10th passage were used.
# In Experimental Example 8, an experiment was performed to check an anti-inflammatory effect of MMPP in synoviocytes treated with LPS and TNF-α.
# It was confirmed that the LPS […]- or TNF-α (10 ng/mL)-induced NO and ROS generations (FIG. 9(A)), the iNOS and COX2 expression (FIG. 9(B)), and STAT3 and NF-κB activities (FIGS. 9(C) and (D)) were reduced in the synoviocytes in the case of groups in which the […] were treated with LPS […] or TNF-α (10 ng/mL) in combination with MMPP […] for 24 hours.
# iNOS and COX-2 = experiment: Western blotting of iNOS and COX-2 expression in LPS-induced RAW 264.7 cells; format: cell-based, mouse; set-up: dose or concentration left out as unconfirmed; conditions: LPS and MMPP
# STAT3 [1] = experiment: STAT3 phosphorylation in LPS-treated RAW 264.7 cells; format: cell-based, mouse
# Method: 12. Western blotting assay: A whole cell lysate, a cytosolic extract, and a nuclear extract were obtained. SDS-PAGE and Western blotting assays were carried out as disclosed in published Documents 1 and 2. Simply speaking, the cells were seeded in a 6-well plate at a density of 5×10^5 cells/well, and cultured for 24 hours. Thereafter, the cells were treated with MMPP or DMSO for 24 hours. After the treatment, the cells were washed twice with PBS, and then lyzed. Proteins of the lyzed cells were separated on 10 to 15% SDS-PAGE. The proteins were transferred to a PVDF membrane, and the PVDF membrane was blocked at room temperature for 2.5 hours in a TB S/T buffer containing 5% skim milk. The membrane to which the proteins were transferred was analyzed using, as primary antibodies, murine monoclonal antibodies against Cdk2, Cdk4, Cdk6, cyclin B1, cyclin D1, cyclin E1, Bcl-2, Bax, caspase-3, caspase-8, STAT3, phspho-STAT3, (3-actin, and histone hl. Expression of the proteins was visualized using a chemiluminescence reagent (Amersham Pharmacia Biotech, Inc., Buckinghamshire, UK), and measured using a digital chemiluminescence imaging system equipped with a CCD camera (Fusion-FX, Fisher BioTech, Ltd., Wembley, Australia). […]
# STAT3 [2] = target: T1, STAT3 (Mus musculus, UniProt P42227); experiment: Pull-down assay, MMPP conjugated to Sepharose 6B beads; format: binding; conditions: recombinant STAT3 protein and cell lysate containing STAT3 from RAW 264.7 cells
# T1 construct: a cell lysate containing a recombinant STAT3 protein or a STAT3 protein; endogenous in cells; host or cells: RAW 264.7
# T1 sequence (P42227 whole entry): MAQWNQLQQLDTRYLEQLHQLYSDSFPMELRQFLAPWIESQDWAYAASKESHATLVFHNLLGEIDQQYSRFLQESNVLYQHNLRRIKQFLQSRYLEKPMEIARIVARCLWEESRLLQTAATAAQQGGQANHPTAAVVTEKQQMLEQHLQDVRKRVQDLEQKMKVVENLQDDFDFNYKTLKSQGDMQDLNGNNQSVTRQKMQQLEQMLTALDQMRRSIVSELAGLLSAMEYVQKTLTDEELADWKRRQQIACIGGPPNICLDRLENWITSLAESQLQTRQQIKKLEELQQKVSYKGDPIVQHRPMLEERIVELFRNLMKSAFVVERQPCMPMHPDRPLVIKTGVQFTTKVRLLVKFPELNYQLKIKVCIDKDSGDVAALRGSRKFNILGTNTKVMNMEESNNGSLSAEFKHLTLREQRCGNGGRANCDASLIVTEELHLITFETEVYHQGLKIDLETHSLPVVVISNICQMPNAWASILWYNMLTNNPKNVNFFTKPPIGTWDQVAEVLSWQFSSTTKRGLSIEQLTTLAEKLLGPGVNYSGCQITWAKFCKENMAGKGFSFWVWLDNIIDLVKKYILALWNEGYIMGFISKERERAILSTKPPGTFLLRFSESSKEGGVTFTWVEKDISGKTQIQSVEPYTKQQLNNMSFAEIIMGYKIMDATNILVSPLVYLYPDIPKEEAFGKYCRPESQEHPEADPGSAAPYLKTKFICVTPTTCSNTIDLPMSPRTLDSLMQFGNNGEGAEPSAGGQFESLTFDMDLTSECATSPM
# Method: As a method for isolating a protein complex, a pull-down assay is an assay for checking a protein-protein interaction. To identify a protein interacting with MMPP, MMPP was bound to […] epoxy-activated Sepharose 6B (Sigma, St Louis, Mo., United States).
# To check the interaction between MMPP and STAT3, a pull-down assay was carried out. MMPP was conjugated to epoxy-activated Sepharose 6B. A pull-down assay was performed using an interaction between a cell lysate containing a recombinant STAT3 protein or a STAT3 protein and MMPP conjugated to Sepharose 6B beads. […] Referring to FIG. 2(D), it can also be seen that the binding of MMPP to mutant STAT3 Thr456A was reduced, compared to the STAT3.
smiles,measurement,setting,value
"COc1ccc(C/C=C/c2ccc(O)c(OC)c2)cc1 [MMPP, 2-methoxy-4-(3-(4-methoxyphenyl)prop-1-en-1-yl)phenol]",NO and ROS generation,RAW 264.7 cells,reduced
same,STAT3 and NF-κB activities,RAW 264.7 cells,reduced
same,iNOS and COX2 expression,RAW 264.7 cells,reduced
same,NF-κB STAT3 DNA-binding activity,NF-κB and STAT3,inhibited
same,STAT3 DNA-binding activity,NF-κB and STAT3,inhibited
same,"nuclear translocation of pSTAT3, p50 and p65",NF-κB and STAT3,inhibited
same,"phosphorylation of IkB, IKKb and IKKa",NF-κB and STAT3,inhibited
same,NO and ROS generations,synoviocytes,reduced
same,STAT3 and NF-κB activities,synoviocytes,reduced
same,iNOS and COX2 expression,synoviocytes,reduced
same,iNOS and COX-2 expression,iNOS and COX-2,reduced in a concentration-dependent manner
same,LPS-induced phosphorylation of STAT3,STAT3 [1],inhibited
same,interaction with STAT3 in pull-down assay,STAT3 [2],mediated the interaction
